Reference: EP1208096B1, “SUBSTITUTED PYRIDAZINES AND FUSED PYRIDAZINES WITH ANGIOGENESIS INHIBITING ACTIVITY” (Bayer Corporation, priority 1999, dated 2001)

Experiments:
[1] = tested on: SK-MEL2 human tumor cells that were transfected with a plasmid containing the murine VEGF gene; assay: Matrigel Angiogenesis Model (hemoglobin content of Matrigel plugs); assay type: in vivo, Mice; conditions: 30, 100 and 300 mg/kg po sid; 12 days post-implantation; vs. vehicle control animals
Experimental: Preparation of Matrigel Plugs and in vivo Phase: Matrigel® (Collaborative Biomedical Products, Bedford, MA) is a basement membrane extract from a murine tumor composed primarily of laminin, collagen IV and heparan sulfate proteoglycan. It is provided as a sterile liquid at 4° C, but rapidly forms a solid gel at 37° C.
Liquid Matrigel at 4° C was mixed with SK-MEL2 human tumor cells that were transfected with a plasmid containing the murine VEGF gene with a selectable marker. Tumor cells were grown in vitro under selection and cells were mixed with cold liquid Matrigel at a ratio of 2 X 10^6 per 0.5 ml. […]
Optical densities were determined spectrophotometrically at 600 nm in a 96-well plate reader, SpectraMax 250 Microplate Spectrophotometer System (Molecular Devices, Sunnyvale, CA). Background Lysis Buffer readings were subtracted from all wells.
Total sample hemoglobin content was calculated according to the following equation: Total Hemoglobin = (Sample Lysate Volume) x (Hemoglobin Concentration) [formula]
The average Total Hemoglobin of Matrigel samples without cells was subtracted from each Total Hemoglobin Matrigel sample with cells. Percent inhibition was calculated according to the following equation: % Inhibition =((Average Total Hemoglobin Drug-Treated Tumor Lysates) X 100)/((Average Total Hemoglobin Non-Treated Tumor Lysates)) [formula]

[2] = molecular target: T1, NIH3T3 cells expressing the full length KDR receptor (Homo sapiens, UniProt P35968); assay: Cell mechanistic assay - Inhibition of 3T3 KDR phosphorylation; assay type: cell-based; conditions: VEGF (30 ng / ml) for 10 minutes after 30 minutes with compound; KDR phosphotyrosine ELISA
T1 construct: NIH3T3 cells expressing the full length KDR receptor; expressed in transfected cells; host or cells: NIH3T3 cells (G418 selection)
Experimental: NIH3T3 cells expressing the full length KDR receptor were grown in DMEM (Life Technologies, Inc., Grand Island, NY) supplemented with 10% newborn calf serum, low glucose, 25 mM /L sodium pyruvate, pyridoxine hydrochloride and 0.2 mg/ ml of G418 (Life Technologies Inc., Grand Island, NY). The cells were maintained in collagen I-coated T75 flasks (Becton Dickinson Labware, Bedford, MA) in a humidified 5% CO2 atmosphere at 37°C.
Fifteen thousand cells were plated into each well of a collagen I-coated 96-well plate in the DMEM growth medium. Six hours later, the cells were washed and the medium was replaced with DMEM without serum. After overnight culture to quiesce the cells, the medium was replaced by Dulbecco's phosphate-buffered saline (Life Technologies Inc., Grand Island, NY) with 0.1% bovine albumin (Sigma Chemical Co., St Louis, MO). After adding various concentrations (0-300 nM) of test compounds to the cells in 1% final concentration of DMSO, the cells were incubated at room temperature for 30 minutes. The cells were then treated with VEGF (30 ng / ml) for 10 minutes at room temperature. Following VEGF stimulation, the buffer was removed and the cells were lysed by addition of 150 µl of extraction buffer (50 mM Tris, pH 7.8, supplemented with 10% glycerol, 50 mM BGP, 2 mM EDTA, 10 mM NaF, 0.5 mM NaVO4, and 0.3% TX-100) at 4°C for 30 minutes.
To assess receptor phosphorylation, 100 microliters of each cell lysate was added to the wells of an ELISA plate precoated with 300 ng of antibody C20 (Santa Cruz Biotechnology, Inc., Santa Cruz , CA). Following a 60-minute incubation, the plate was washed and bound KDR was probed for phosphotyrosine using an anti-phosphotyrosine mAb clone 4G10 (Upstate Biotechnology, Lake Placid, NY). The plate was washed and wells were incubated with anti-mouse IgG/HRP conjugate (Amersham International plc, Buckinghamshire, England) for 60 minutes. Wells were washed and phosphotyrosine was quantitated by addtion of 100 µl per well of 3,3',5,5' tetramethylbenzidine (Kirkegaard and Perry, TMB Microwell 1 Component peroxidase substrate) solution. Color development was arrested by the addition of 100 µl 1% HCl based stop solution (Kirkegaard and Perry, TMB 1 Component Stop Solution).
Optical densities (OD) were determined spectrophotometrically at 450 nm in a 96-well plate reader (SpectraMax 250, Molecular Devices). Background (no VEGF added) OD values were subtracted from all ODs and percent inhibition was calculated according to the equation: % Inhibition =((OD(VEGF control) - OD(with test compound)) X 100)/(OD(VEGF control) - OD(no VEGF added)) [formula]
IC50s were determined with a least squares analysis program using compound concentration versus percent inhibition. Compounds that have IC50 < 20 nM in this assay include those of Examples 2, 6, 7, 11, 15 and 16. Compounds that have IC50 values between 20 nM and 50 nM include those of examples 1, 4, 5, 8, 10, 12, 13 and 14. Those that have measured IC50 values > 50 nM include those of examples 9 and 21.

T1 sequence (P35968 20-1356): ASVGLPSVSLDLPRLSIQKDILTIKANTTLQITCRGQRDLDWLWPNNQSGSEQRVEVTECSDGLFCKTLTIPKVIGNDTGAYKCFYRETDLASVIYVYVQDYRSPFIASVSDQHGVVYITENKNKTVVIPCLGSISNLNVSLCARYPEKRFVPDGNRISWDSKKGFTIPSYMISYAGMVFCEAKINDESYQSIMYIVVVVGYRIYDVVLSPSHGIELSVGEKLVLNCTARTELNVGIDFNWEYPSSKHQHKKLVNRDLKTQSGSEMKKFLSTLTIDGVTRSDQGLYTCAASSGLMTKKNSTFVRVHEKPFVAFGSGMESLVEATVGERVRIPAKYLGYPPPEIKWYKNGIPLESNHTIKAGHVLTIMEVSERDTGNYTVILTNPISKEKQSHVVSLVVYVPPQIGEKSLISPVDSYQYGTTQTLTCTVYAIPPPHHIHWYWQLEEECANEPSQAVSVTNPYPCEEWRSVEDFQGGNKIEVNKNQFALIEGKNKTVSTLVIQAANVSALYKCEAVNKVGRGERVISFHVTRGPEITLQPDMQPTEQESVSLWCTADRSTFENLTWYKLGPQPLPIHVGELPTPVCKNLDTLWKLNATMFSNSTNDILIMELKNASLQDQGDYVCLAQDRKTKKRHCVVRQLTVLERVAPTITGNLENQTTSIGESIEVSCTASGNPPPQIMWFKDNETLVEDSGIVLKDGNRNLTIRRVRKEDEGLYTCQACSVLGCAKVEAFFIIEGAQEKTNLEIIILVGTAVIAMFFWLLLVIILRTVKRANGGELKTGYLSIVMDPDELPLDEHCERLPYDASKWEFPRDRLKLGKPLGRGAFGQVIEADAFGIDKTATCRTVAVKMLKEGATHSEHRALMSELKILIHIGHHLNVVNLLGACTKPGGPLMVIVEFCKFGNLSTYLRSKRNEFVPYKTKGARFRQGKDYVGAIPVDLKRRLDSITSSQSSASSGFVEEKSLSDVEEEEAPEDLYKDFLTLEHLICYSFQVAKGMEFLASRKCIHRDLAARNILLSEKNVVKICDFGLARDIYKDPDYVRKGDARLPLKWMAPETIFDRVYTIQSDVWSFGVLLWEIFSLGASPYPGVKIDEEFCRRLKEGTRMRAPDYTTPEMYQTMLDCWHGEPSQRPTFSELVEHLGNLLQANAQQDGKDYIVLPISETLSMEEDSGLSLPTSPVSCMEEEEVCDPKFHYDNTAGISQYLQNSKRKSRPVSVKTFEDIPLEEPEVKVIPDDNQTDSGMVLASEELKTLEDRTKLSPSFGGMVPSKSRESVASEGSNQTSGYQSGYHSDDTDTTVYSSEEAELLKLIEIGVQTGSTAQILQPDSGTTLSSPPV

## NC(=O)c1cc(Cc2nnc(Nc3ccc(Cl)cc3)c3ccccc23)ccn1 [Example 2, 4-[4-(4-Chlorophenylamino)phthalazin-1-ylmethyl]pyridin-2-yl carboxylic acid amide]
[1]
  inhibition of total hemoglobin content of the Matrigel samples: > 50%
[2]
  IC50: < 20 nM
